# Measured values taken from patent US11980620B2, “Compounds and methods for treatment of Diamond Blackfan anemia” (THE CHILDREN'S MEDICAL CENTER CORPORATION, priority 2017, dated 2024).
# Columns and labels:
# [1] = tested on: CD34-5F or CB progenitors; test: Output of mature RBCs at end of stage III of erythroid culture; format: cell-based, human
# Procedure: (FIG. 12A) Erythroid differentiation of control and DBA CD34-5F cells treated with DMSO vehicle or SMER28 (10 μM) during the initial CD34^+ progenitor phase (day 0-4 of differentiation), or stage I of erythroid culture (day 4-9 of differentiation). Percent of erythroid cells after stage I of differentiation is indicated in top left for each condition, and quantitated in (FIG. 12B). Data are shown as mean f s.e.m. of 4 independent experiments, with 2 control and 4 DBA iPSCs. (FIG. 12C) Same as (FIG. 12A) for CB CD34+ cells transduced with shRPS19 hairpins. GFP^+ RPS19^sh and GFP^− control cells were quantitated separately. […] (FIG. 12D) RBC pellets at the end of stage III initiated with equal numbers of CD34-5F or CB progenitors. SMER28 was added at […]. (FIG. 12E) May-Grunwald-Giemsa stain of erythroid cells from CB CD34^+ at end of stage III. Arrows indicate enucleated RBCs, which are quantitated by flow cytometry. (FIG. 12F) Quantitation of the enucleation efficiency (left) of GLYA^+ cells. Data in FIGS. 12E-12F represents 3 independent experiments. For all panels, *p<0.05, **p<0.01.
# Erythroblasts proliferate rapidly to give rise to terminally differentiated RBCs. […]
# control iPSCs = test: Erythroid differentiation (CD71+GlyA+) of CD34-5F cells from control iPSCs; format: cell-based, human
# Procedure: (FIG. 8A) The distribution of 1440 compounds by Z-score in a proliferation-based screen of the Sigma LOPAC chemical library. DBA CD34-5F cells were plated in erythroid-promoting conditions in 384-well format. Erythroid proliferation was measured in the presence of 5 μM of each compound, and converted into Z-scores. The screen was carried out with 3 RPS19 DBA and 2 normal iPSC lines. (FIG. 88) Dose-dependent effect of SMER28 (in μM) on erythroid differentiation, shown as the absolute number of erythroid cells in each drug-treated condition normalized to vehicle (DMSO) control. Erythroid cells were analyzed on day 9 of differentiation using markers CD71 and GlyA. […] (FIG. 8C) Absolute number of erythroid cells (analyzed on day 9) in each drug-treated condition normalized to vehicle (DMSO) control (4 independent experiments). […]
# (FIG. 12A) Erythroid differentiation of control and DBA CD34-5F cells treated with DMSO vehicle or SMER28 (10 μM) during the initial CD34^+ progenitor phase (day 0-4 of differentiation), or stage I of erythroid culture (day 4-9 of differentiation). Percent of erythroid cells after stage I of differentiation is indicated in top left for each condition, and quantitated in (FIG. 12B). […] GFP^+ RPS19^sh and GFP^− control cells were quantitated separately. […] Arrows indicate enucleated RBCs, which are quantitated by flow cytometry. […]
# p21 = p21 levels in CD34+ cells of DBA patient derived erythroid cell population; format: cell-based, human; settings: 1.5 μM; in vitro
# Description: Accordingly, in another embodiment, an autophagy activator as disclosed herein can be administered to a subject according to the methods as disclosed herein in an effective dose to decrease the levels of p21 expression in CD34+ cells present in an erythroid cell population obtained from the subject by at least about 1%, at least about 2%, at least about 3%, at least about 5%, at least about 10%, at least about 15%, least about 20%, at least about 30%, at least about 40%, at least about 50%, at least about 60%, at least about 70%, at least about 80%, at least about 90%, at least about 95%, at least about 98%, at least about 99%, or more than 99%, as compared to in the absence of an autophagy activator.
# A53T alpha-synuclein = settings: PC-12 cells; independent of rapamycin treatment; cited from earlier work
# LC3 = test: Autophagic marker LC3 levels in liver of treated mice; format: in vivo, mouse
# Description: FIGS. 11A-11C show effect of SMER28 on CD34+ progenitors. (FIG. 11A) Protein levels of LC3-I and LC3-II in control and SMER28 treated mice. GADPH is used as a loading control. […] (FIG. 11C) Atg5 morpholino treatment of rps29^+/− zebrafish.
# In following evaluation, the effects of administration of SMER28 to mice with irradiation-induced anemia, a model that enables dose-finding and initial testing of safety and bioactivity. […] To assess bioactivity, we measured the levels of autophagic marker LC3 in treated animals. […] (FIG. 10C). We tested the effect of this compound on human cells by treating NSG mice transplanted with human CD34-5F and CB cells. SMER28 increased the output of GlyA^+ RBCs from DBA CD34-5F cells (FIG. 10D).
compound,measurement,setting,value
"C=CCNc1ncnc2ccc(Br)cc12 [SMER28, 6-Bromo-N-2-propenyl-4-quinazolinam]",output of RBCs from erythroblasts,[1]; treatment of CD34+ progenitors only,comparable to vehicle controls
same,output of iPSC- and CB-derived mature RBCs,[1]; treatment of erythroblasts during stages I-III,enhanced
same,effect on number of erythroid cells normalized to vehicle,control iPSCs,2.5 fold
same,EC50,"control iPSCs; Homo sapiens, iPSC, read-out: EC50, number of erythroid cells",1600 nM
same,levels of p21 in CD34+ cells,p21,decreased
same,A53T alpha-synuclein clearance,A53T alpha-synuclein,Enhances
same,LC3-I and LC3-II levels in the liver,LC3,modestly increased
